Reference: patent US20110053859A1, “METHODS TO REDUCE THE EFFECTS OF SLEEP DEPRIVATION” (The U. S. Government Respresented by the Department of …, priority 2007, published 2011)
“Also recorded” adds a separate entry of the source.

Experiments:
[1] = system: sleep deprived (30-36 hrs) rhesus monkeys; assay: Multi-image DMS task after 30-36 hrs of sleep deprivation; format: in vivo, rhesus monkeys (Macaca mulatta)
Text: (§1) Subjects: All procedures were reviewed and approved by the Institutional Animal Care and Use Committee of Wake Forest University, and performed in accordance with established practices as described in the National Institutes of Health Guide for Care and Use of Laboratory Animals. Eight adult male rhesus monkeys (Macaca mulatta) weighing (8.0-11.0 kg) were utilized in this study. They were individually housed in stainless steel cages in temperature and humidity controlled colony rooms with lighting maintained on a 0600:1800 on:off schedule and fed a diet of monkey chow supplemented by fresh fruit to maintain daily monitored body weight. Fluid intake was restricted in time and amount such that a prescribed volume of an animal's normal daily fluid intake (80 ml/kg) was received either during the behavioral testing session, or within 2 hours of being returned to the home cage.
(§2) Behavioral Testing: Each monkey was exposed to 6 different testing conditions (Normal Vehicle, Alert orexin-A (IV and nasal), Sleep Deprivation, Sleep Deprivation+orexin-A (IV or nasal) which required 11-14 test sessions for each of the 8 monkeys. Animals were placed in a primate chair 1.5 meters in front of an LCD-front-projection screen for daily testing on a multi-image visual delayed match to sample (DMS) task (Porrino 2005) and performed 150-300 trials per session. Animals were trained to move a cursor tracked by a fluorescent marker attached to the back of the monkey's hand into the images by positioning the hand within a two dimensional coordinate system on the chair counter. Stimuli consisted of clip art images projected as 25 cm squares within a 3×3 position matrix onto a 1.0 meter×1.0 meter display. Responses to appropriate stimuli were rewarded with diluted fruit juice delivered via a sipper tube placed in front of the mouth. All animals were trained to a stable baseline on the DMS task in which delay varied randomly from (range 1-60 sec to 1-90 sec across animals) on a given trial, and the number of non-match stimuli (images) varied randomly from 2 to 8 in the Match phase of the task (Porrino 2005). As shown previously performance accuracy varied directly with duration of delay and number of nonmatch images (#images) presented in the Match phase (Hampson 2004, Porrino 2005). Each stimulus image (sample or nonmatch) was used on only one trial during a daily session and the sets of images were routinely changed every two weeks to maintain the trial unique feature of each session. Performance was monitored daily on the DMS task and there was no testing on weekends.
Sleep Deprivation Procedure: Sleep deprivation consisted of 30-36 hours of continuous sleep prevention supervised by laboratory personnel as previously verified using EEG recordings and sleep architecture to be a valid method of depriving animals of slow wave and REM sleep (Porrino 2005). Animals were maintained in a cage separate from their home cage in a continuously lighted room and kept awake with videos, music, occasional treats, gentle cage shaking, and interaction with technicians until their usual daily testing time. Animals were allowed 10 days between sleep deprivation episodes and were allowed to sleep after testing on each day following the 30-36 hr sleep deprivation episode. There were no residual effects of sleep deprivation on testing 24 hrs after the sleep deprivation procedure and animals returned to there normal sleep patterns on the next night following the sleep deprivation procedure.
Drug Administration: orexin-A (hypocretin-1) was mixed in saline for IV injections and in sterile water for nasal application. For IV administration orexin-A, (#003-30, Phoenix Pharmaceuticals, Mountain View, Calif.) was dissolved in physiological saline as a stock solution of 200 μg/ml which was then diluted in saline to inject 3 different doses of 2.5, 5.0 and 10.0 μg/kg via an indwelling catheter placed in either the femoral or jugular vein using a glass syringe. […]

drowsy monkeys = assay: DMS task in drowsy monkeys tested at the end of their normal day (4 PM); format: in vivo; details: for DMS performance at normal testing time: normal testing conditions (alert), nasal; for DMS performance impairment (high load and extended delay trials) in drowsy condition: tested at 4 PM, nasal spray 1.0 μg
Description: Monkeys were tested at the end of their normal day 12 hr day at 4 PM, approximately 6-8 hours later than their normal testing period, in what can be considered a “drowsy” condition just prior to the onset of their dark cycle at 6 PM (Price 2003, Thomas 2000). At this time animals were impaired in performance relative to their normal testing times (high cognitive load: F(1.72)=8.49. p<0.001; extended delays-very high cognitive load: F(1.72)=5.84, p<0.01) during the day. […] F refers to an analysis of variance and the numbers in parentheses are the degrees of freedom, essentially the number of subjects and conditions (−1). The F value is the an indication of the effect size as measured by the analysis of variance, which is translated into a probability (p) value. This is a standard test for significance. […] Performance was decreased in animals administered nasal sprays of saline at this time of testing. Nasal orexin-A administered at 4 PM improved performance back to normal levels.

[2] = system: alert non sleep deprived monkeys; assay: Multi-image delayed match to sample (DMS) task in alert non-sleep-deprived monkeys; format: in vivo, rhesus monkeys (Macaca mulatta); details: for DMS performance vs saline control: IV 10.0 μg/kg, all 8 monkeys
Text: as §1, §2
Drug Administration: orexin-A (hypocretin-1) was mixed in saline for IV injections and in sterile water for nasal application. […]

sleep deprived monkeys = assay: PET (FDG) local cerebral glucose metabolism (CMRglc) during DMS task in sleep deprived monkeys; format: in vivo, rhesus monkeys (Macaca mulatta)
Text: Measurement of Local Rates of Cerebral Glucose Metabolism: Measurement of rates of cerebral glucose metabolism (CMRglc) were made in 8 monkeys in four different conditions: normal alert DMS task vehicle; DMS task-Sleep Deprivation vehicle; DMS task-Sleep Deprivation+orexin A (IV or nasal). All animals (n=8) were acclimated to the PET scan sessions to the extent that performance was not influenced by the injection or blood collection procedures. On the day of the scan the monkeys were placed in primate chairs and received a 30 sec injection of 3-5 mCi of [^18]-2-deoxy-2-fluoro-D-glucose (FDG). The DMS task was initiated 5-10 min later and was performed for a total of 40 minutes (80-100) trials while the FDG was incorporated and taken up by cells during performance in the DMS task. After 40 min animals were then anesthetized with ketamine (15 mg/kg, iv) and transported to the PET scanner. Following scan acquisition, monkeys were transported back to their home cages and continuously monitored until fully recovered. Effects of anesthesia and other factors associated with the PET scanning procedures were previously assessed and shown to not influence measures of isotope uptake.
To calculate glucose uptake tracer concentrations were measured in blood samples using an automated gamma well counter from three blood samples collected from the femoral vein at 10 minutes prior to tracer injection and 8 and 42 minutes post-injection. A population-averaged FDG blood curve (calculated for monkey) was scaled to the measured blood curve for the time period from injection to the end of the PET scan (Sokoloff 1977). Data were transformed to CMRglc based on the operational equation (Phelps 1979, Kennedy 1978). Rate constants (k1, k2, and k3) and lumped constant as determined in monkey by Kennedy et. al. 1978, along with a k4 value used in human studies (Phelps 1979). PET scans were performed with a General Electric (GE) Advance NXi PET scanner with a resolution of 4 mm and consisted of a five minute transmission scan acquired in 2D mode, followed by a ten minute emission scan acquired in 3D mode. The image reconstruction of the 3D data used the 3D-reprojection method with full quantitative corrections and smoothed using a 4 mm Gaussian filter transaxially and then segmented. Data were corrected for attenuation and reconstructed into 128 by 128 matrices using a Hanning filter with a 4mm cutoff transaxially and a ramp filter with an 8.5 mm cutoff axially.
PET data were analyzed with Statistical Parametric Mapping (SPM99) software (http://www.fil.ion.ucl.ac.uk/spm/) implemented in MATLAB (MathWorks, Natick, Mass.). Reconstructed images for each scan from each of the 8 monkeys were co-registered to corresponding structural MR images obtained on a 1.5-T MR scanner (GE Medical Systems, Milwaukee, Wis.) using automated image registration (Black 2001) and then transformed spatially into a standard space with an FDG template for rhesus monkeys constructed in our laboratory based on procedures of Black and colleagues (Paxinos 2003). Resultant images were smoothed using a 2 mm isotropic Gaussian kernel with a voxel size of 1×1×1 mm. Scans were normalized for differences in global activity by proportional scaling. Effects at each voxel were estimated according to the general linear model using the multi-subject conditions and covariates option in SPM. Statistical maps were created for comparisons of the […] different experimental conditions: Normal Alert Vehicle vs. Normal Alert orexin-A (IV or nasal); Sleep Deprivation vs. Normal Alert Vehicle; Sleep Deprivation vs. Sleep Deprivation+orexin-A (IV or nasal) and Sleep Deprivation+orexin-A IV vs. Sleep Deprivation+orexin-A nasal. Exploratory analyses used a minimum voxel height (magnitude) threshold of p<0.01 and a minimum cluster size of 50 voxels. […]

[3] = nasal vs IV in the same monkeys

orexin-A: 33 residue neuropeptide hypocretin-1, residues 34-66 of human prepro-orexin; bought from Phoenix Pharmaceuticals (#003-30) (QPLPDCCRQKTCSCRLYELLHGAGNHAAGILTL; Orexin-A; UniProt O43612 34-66, looked up)
Monkeys that failed to show significant improvement on high load trials ([1]; IV 10.0 μg/kg): one of 8 | DMS performance on high cognitive load trials vs sleep deprived sessions ([1]; IV 5.0 and 10.0 μg/kg): significantly improved relative to sleep deprived sessions | DMS performance on low cognitive load trials vs alert condition ([1]; IV 5.0 and 10.0 μg/kg): performed with the same efficiency as in the alert condition | DMS performance vs alert non-sleep deprived levels ([1]; IV 5.0 and 10.0 μg/kg): neither dose restored performance to alert non-sleep deprived levels | DMS performance vs sleep deprived saline sessions ([1]; IV 5.0 and 10.0 μg/kg): systematically increased performance; also recorded: partially reversed the detrimental effects on performance | DMS performance on low cognitive load trials, nasal vs IV ([1]; nasal 1.0 μg vs IV 10.0 μg/kg): no difference between IV and nasal orexin-A | DMS performance overall and on high cognitive load trials, nasal vs IV ([1]; nasal 1.0 μg vs IV 10.0 μg/kg): significantly more effective | Overall DMS performance vs sleep deprivation saline ([1]; nasal 1.0 μg, overall, low and high load trials): reversed the detrimental effects of 30-36 hr sleep deprivation | DMS performance on high cognitive load trials ([1]; nasal spray 1.0 μg): elevated performance above normal alert levels | DMS performance on low cognitive load trials ([1]; nasal spray 1.0 μg): returning performance to normal alert levels | DMS performance on extended delay trials ([1]; nasal spray 1.0 μg, extended delays (90-120 sec)): significantly above extended delay trials in both control sleep deprived and normal alert sessions; also recorded: significantly improved | DMS performance at normal testing time (drowsy monkeys): no effect on performance | DMS performance at normal testing time (drowsy monkeys; listed as hyocretin): no effect on cognitive performance | DMS performance impairment (high load and extended delay trials) in drowsy condition (drowsy monkeys): reversed completely | DMS performance impairment (high load and extended delay trials) in drowsy condition (drowsy monkeys; listed as hyocretin): reverses cognitive deficits | DMS performance vs saline control [2]: slight but significant performance impairment | DMS performance vs saline control ([2]; listed as Orexin-A): significant reduction | DMS performance, dose relation ([2]; IV 2.5, 5.0 and 10.0 μg/kg): dose-related trend toward reduced performance | DMS performance in normal alert sessions ([2]; nasal spray 1.0 μg): little or no effect on DMS performance; also recorded: no significant effects | Local CMRglc in DPFC vs sleep deprivation vehicle (sleep deprived monkeys; IV 10.0 μg/kg): significant increases | Local CMRglc in DStr vs sleep deprivation vehicle (sleep deprived monkeys; IV 10.0 μg/kg): significant increases | Local CMRglc in MTL vs sleep deprivation vehicle (sleep deprived monkeys; IV 10.0 μg/kg): significant decrease | Local CMRglc in Thal vs sleep deprivation vehicle (sleep deprived monkeys; IV 10.0 μg/kg): significant increases | Local CMRglc in DPFC vs sleep deprivation vehicle (sleep deprived monkeys; nasal spray mist 1.0 μg): significantly elevated bilaterally | Local CMRglc in MTL vs sleep deprivation vehicle (sleep deprived monkeys; nasal spray mist 1.0 μg): significant decreases | Change of CMRglc in DPFC, nasal vs IV (sleep deprived monkeys; [3]): greater increases in CMRglc bilaterally | Change of CMRglc in DStr, nasal vs IV (sleep deprived monkeys; [3]): greater increases in CMRglc bilaterally | Change of CMRglc in MTL, nasal vs IV (sleep deprived monkeys; [3]): decreased CMRglc | Change of CMRglc in Thal, nasal vs IV (sleep deprived monkeys; [3]): greater increases in CMRglc bilaterally
